Earlier results in US20230133919A1, “COMPOSITIONS AND RELATED METHODS FOR REDUCING VAPOR EFFECT OF VOLATILE HERBICIDES” (BOARD OF TRUSTEES OF MICHIGAN STATE UNIVERSITY, priority 2020, published 2023).

Settings: approximate

## CNC.O=C(O)COc1ccc(Cl)cc1Cl [2,4-D (dimethylamine salt)]
  vapor pressure: ~1.3×10^−5 Pa

## CCCCOCCOC(=O)COc1ccc(Cl)cc1Cl [2,4-D (butoxyethyl ester)]
  vapor pressure: ~3.2×10^−4 Pa

## CCCCC(CC)COC(=O)COc1ccc(Cl)cc1Cl (stereo not shown) [2,4-D (2-ethylhexyl ester)]
  vapor pressure: ~4.8×10^−4 Pa

## CC(C)OC(=O)COc1ccc(Cl)cc1Cl [2,4-D (isopropyl ester)]
  vapor pressure: ~1.9×10^1 Pa
